Reference: patent US10144929B2, “Polypeptide inhibitors of Smad3 polypeptide activities” (Mayo Foundation for Medical Education and Research, priority 2016, dated 2018)

Columns and labels:
AKR-2B cells = test: Soft agar colony formation (anchorage-independent growth, AIG); assay type: cell-based; conditions: 1.5 μM polypeptide, TGFβ 10 ng/mL, seven days
Method: FIGS. 2A-C. TAT-SH3 inhibits Smad3-dependent responses. (A) AKR-2B cells were transiently transfected with a Smad3 (3TP), Smad2 (ARE), or Smad1/5/8 (BRE) reporter construct, and luciferase activity determined following 12 hours incubation in the absence (−) or presence (+) of the indicated ligand (5 ng/mL TGFβ; 10 ng/mL BMP4) or TAT-SNX9(SH3) fusion polypeptide (1.5 μM). Data represent the mean+/−SEM of three experiments. (B) RT-PCR analysis of Smad3 (PAI-1 and CTGF) and Smad2 (MMP2) responsive gene following 24 hour treatment of AKR-2B cells with the indicated concentration of TAT-SNX9(SH3) fusion polypeptide or 5 ng/mL TGFβ. Loading was verified by GAPDH expression. (C) Soft agar colony formation was performed following seven days growth in the presence (+) or absence (−) of TGFβ (10 ng/mL) or the indicated TAT-SNX9(SH3) fusion polypeptide (1.5 μM). […]
FIGS. 3A-E. Inhibition of Smad3 signaling by a defined region of the SH3 domain in SNX9. […] (B) Nuclear fractions were prepared and assessed as in FIG. 1B following transduction with the indicated TAT-SNX9(SH3) fusion polypeptide (Left). Quantitation (mean+/−sd) of nuclear pSmad2 or pSmad3 from 2 experiments (Right). (C) Immunofluorescence of nuclear Smad3 was determined as in FIG. 1C from 30 cells in each of two experiments in the absence (−) or presence (+) of 5 ng/mL TGFβ and the indicated TAT-SNX9(SH3) fusion polypeptide (1.5 μM). […]

CTS SSCT fibroblasts = test: TGF-β responsive gene expression in CTS subsynovial connective tissue fibroblasts (qRT-PCR); assay type: cell-based, human; conditions: 1.5 μM, 90 minutes pretreatment, 2 ng/mL TGF-β 24 hours
Text: FIG. 8 is a graph plotting the expression of CTGF. TGFβ stimulated CTGF gene expression was examined in subsynovial connective tissue as in FIGS. 3D and 4B following addition of TAT-SH3-2 (SNX9 peptide) or TAT-SH3-2M (Control peptide). The results were normalized to control treatments without TGFβ.
FIG. 9 is a graph plotting the expression of PAI-1 by cells exposed to the indicated treatments. TGFβ stimulated PAI-1 gene expression was examined in subsynovial connective tissue as in FIG. 8.
Fibroblasts were harvested from CTS patient SSCT tissue (n=3) who had carpal tunnel release surgery as described elsewhere (Gingery et al., J. Orthop. Res., 32(11):1444-50 (2014)). The CTS SSCT fibroblasts were cultured in Minimum Essential Media (MEM) supplemented with 10% fetal bovine serum (FBS) and 1% antibiotic/antimycotic. […]
Total RNA was isolated gene expression was evaluated using quantitative real-time polymerase chain reaction (qRT-PCR) as described elsewhere (Gingery et al., J. Orthop. Res., 32(11):1444-50 (2014)). TGF-β responsive genes (connective tissue growth factor (CTGF) and plasminogen activator inhibitor-1 (PAI-1)) were evaluated with TATA binding protein as the housekeeping gene.
Statistical analysis of qRT-PCR gene expression was normalized to control, and significance was determined by unpaired Student's t-test for each gene. […]

[1] = system: Normal human lung fibroblasts (NHLF) or lung fibroblasts from idiopathic pulmonary fibrosis (IPF) patients; test: Profibrotic responses in human lung fibroblasts (F-actin, Western, qPCR); assay type: cell-based; conditions: TGFβ 5 ng/mL 24 hours
Method: FIGS. 11A-C. TAT-SH3-2 inhibits profibrotic responses in human lung fibroblasts. (A) Normal human lung fibroblasts (NHLF) or lung fibroblasts from idiopathic pulmonary fibrosis (IPF) patients were transduced with the indicated TAT polypeptide. TGFβ (5 ng/mL) or SB431542 (10 μM) was then added for an additional 24 hours. Images were obtained on a LSM510 confocal microscope following F-actin labeling with phalloidin-TRITC and DAPI nuclei staining. Scale bar: 10 μm. (B) Western analysis for the indicated polypeptides (α-SMA, alpha smooth muscle actin; CTGF, connective tissue growth factor; and GAPDH, glyceraldehyde phosphate dehydrogenase) subsequent to TAT polypeptide transduction and 24 hour treatment in the absence (−) or presence (+) of TGFβ (5 ng/mL) or SB431542 (10 μM). (C) NHLF or IPF fibroblasts were treated as in (A), and qPCR was performed as described herein. Results represent mean±SEM from three independent experiments. *P<0.05, **P<0.005, *** P<0.001.
Normal human lung fibroblasts (NHLF) or lung fibroblasts from idiopathic pulmonary fibrosis (IPF) patients were transduced with the indicated TAT polypeptide. TGFβ (5 ng/mL) or SB431542 (10 μM) was then added for an additional 24 hours. Images were obtained on a LSM510 confocal microscope following F-actin labeling with phalloidin-TRITC and DAPI nuclei staining. […]

TAT-SH3-2: TAT-SNX9(SH3) fusion polypeptide having SNX9 amino acids 21-51 (31 mer) (TVNEGEIITITNPDVGGGWLEGRNIKGERGL; left off: small tags and cut ends)
TGFβ-stimulated anchorage-independent growth in soft agar (AIG) (AKR-2B cells): prevented
expression of PAI-1 (CTS SSCT fibroblasts): No significant differences
CTGF gene expression (CTS SSCT fibroblasts; compared with vehicle, P<0.05): down regulated
profibrotic responses in human lung fibroblasts [1]: inhibited profibrotic responses
